Test results as given in patent US20100062078A1, “PHARMACEUTICAL COMPOSITION FOR TREATING CANCER AND THE SIGNALING PATHWAY THEREOF” (priority 2008, published 2010).

Assays:
Assay type in all cases: cell-based, human
LNCap = test: XTT cell proliferation assay (growth inhibition); conditions: inhibitor pretreatment, then protoapigenone for 12 hours
Experimental: (§1) Cells were seeded at 7×10^3 per well in 96-well culture plates before treatment with different concentrations of protoapigenone for 12, 24 and/or 48 hours. Next, the cytotoxicity of protoapigenone was determined using XTT cell proliferation assay (Sigma, St. Louis, Mo.). The absorbance of wavelength at 490 nm (OD490) and 650 nm (OD650) were determined respectively by enzyme-linked immunosorbent assay (ELISA) reader, and 50% of inhibitory concentration (IC50) was calculated by the value of OD490-OD650. In addition, in order to evaluate the long-term effect, the cells were treated with different concentration of protoapigenone for 3 hours, then were incubated with fresh medium for 14 days so as to form colonies. Finally, the cells were stained with crystal violet and were observed under the microscope.

LNCap cells [1] = test: Cell cycle analysis (PI flow cytometry); conditions: inhibitor pretreatment
Experimental: The ovarian cancer cells and the prostate cancer cells respectively were treated with protoapigenone at different concentrations (0, 2.5, 5 and 10 μM) for 24 hours and 6 hours (or 12 hours). These cells were harvested by trypsin and fixed with 70% ethanol for 1 hour, washed with phosphate buffered saline (PBS) twice, and resuspended in propidium iodide (PI)/RNase A solution for 30 minutes. In accordance with the mechanism of DNA stained with propidium iodide, the cell cycle and sub-G1 distribution were detected by the FACScan flow cytometry (Becton Dickinson, San Jose, Calif.), and data analysis was done with CellQuest software (BD Bioscience).

p38 MAPK = test: Immunoblotting, phosphorylation in LNCap cells; conditions: LNCap pretreated 1 hour with inhibitor, then protoapigenone 1 hour
Text: The concentration of protein supernatant was further determined using the Bio-Rad protein assay kit (Bio-Rad Laboratories, Hercules, Calif.). Whole cell lysates were separated on polyacrylamide sodium dodecyl sulfate (SDS) gels and the proteins were transferred onto the nitrocellulose membrane. Proteins were detected sequentially by the specific primary antibodies, followed by peroxidase-conjugated secondary antibodies, and visualized by the Enhanced chemiluminescence detection system (Amersham, N.J.).

LNCap cells [2] = test: Protoapigenone-induced apoptosis with kinase inhibitor pretreatment
Experimental: Human prostate cancer cell line LNCap used in the present invention was purchased from ATCC, Manassas, Va. and was cultured in RPMI 1640 medium supplemented with 10% FBS and penicillin/streptomycin/amphotericin B. LNCap cells were treated with 2.5, 5 and 10 μM protoapigenone respectively and were analyzed. In some experiments, LNCap cells were treated with p38 mitogen-activated protein kinase (MAPK) inhibitor SB203580 or c-Jun NH2-terminal kinase (JNK) ½ inhibitor SP600125 for one hour before protoapigenone treatment.

MDAH-2774 = test: XTT cell proliferation assay (cytotoxicity)
Experimental: as §1

Structure (SMILES)	survival rate of LNCap cells vs cells only treated with protoapigenone (LNCap)	effect of inhibitor on protoapigenone-induced S and G2/M phases arrest (LNCap cells [1])	protoapigenone-induced phosphorylation (activation) of p38 MAPK in presence of inhibitor (p38 MAPK)	protoapigenone-induced apoptotic percentage in presence of inhibitor (LNCap cells [2])	inhibition of cell growth (MDAH-2774; MDAH-2774, 5 μM cisplatin) [%]	inhibition of cell growth (MDAH-2774; MDAH-2774, 10 μM cisplatin) [%]
C[S+]([O-])c1ccc(-c2nc(-c3ccncc3)c(-c3ccc(F)cc3)[nH]2)cc1 (stereo not drawn) [SB203580, reference compound]	higher	significantly attenuates	blocked	decreased	–	–
N.N.[Cl][Pt][Cl] [cisplatin, cis-diamminedichloridoplatinum (II), reference compound]	–	–	–	–	28.48	36.91
